Several values for one entry are separate records, joined by “and”; a condition that tells them apart may be missing. Equal values may be shown once.
Tests used:
[1] = tested on: Escherichia coli (E. coli—ATCC #10536); assay: Synergy test: high resolution MBC microtiter plate assay, phosphate buffer containing 35% dipropylene glycol, 15 seconds contact; type: cell-based; settings: E. coli 10536; for SI (Synergy Index = Qa/QA + Qb/QB): at Qa and Qb, <1 synergy, 1 additivity, >1 antagonism
Description: One measure of synergy is -the industrially accepted method described by Kull, F. C.; Eisman, P. C.; Sylwestrowicz, H. D. and Mayer, R. L., in Applied Microbiology 9:538-541 (1961), using the ratio determined by the formula:
Qa/QA+Qb/QB=Synergy Index (“SI”)
wherein: QA=concentration of compound A (first component) in percent, acting alone, which produced an end point (MBC of Compound A). Qa =concentration of compound A in percent, in the mixture, which produced an end point. QB=concentration of compound B (second component) in percent, acting alone, which produced an end point (MBC of Compound B). Qb=concentration of compound B in percent, in the mixture, which produced an end point.
When the sum of Qa/QA and Qb/QB is greater than one, antagonism is indicated. […] The lower the SI, the greater is the synergy shown by that particular mixture. The minimum biocidal concentration (MBC) of a microbicide is the lowest concentration tested under a specific set of conditions that provides complete kill of the tested microorganisms.
Synergy tests were-conducted using standard microtiter plate assays with, phosphate buffer containing 35% dipropylene glycol (DPG). In this method, a wide range of combinations of chemicals was tested by conducting high resolution MBC assays of Component (A) in the presence of various concentrations of Component (B). High resolution MBCs were determined by adding varying amounts of microbicide to one column of a microtiter plate and doing subsequent ten-fold dilutions using an automated liquid handling system to obtain a series of closely spaced endpoints. The MBC plate was inoculated one column at a time with the test microorganism. An aliquot of the inoculated well was transferred at 15 seconds to a plate containing a neutralizing agent (D/E Neutralizing Broth), mixed and held for 5 minutes before being transferred to a growth plate containing trypticase soy broth (TSB). The TSB plate was incubated at 37° C. and read for the presence/absence of growth at 24 hours. The lowest level tested that provided complete kill (as evidenced by no growth in the microtitre plate) of the test organisms in 15 seconds is the minimum biocidal concentration (MBC).
The synergy of the combinations of the present invention was determined against a bacterium, Escherichia coli (E. coli—ATCC #10536), at a concentration of approximately 1×10^8 bacteria per mL. This microorganism is representative of natural contaminants in many consumer and industrial applications.

[2] = tested on: Staphylococcus aureus (10788 strain); assay: Antimicrobial efficacy in water, 15 seconds contact, mean bacterial survival NMBS by colony count; type: cell-based; settings: for NMBS: alone, S. Aureus, 15 seconds contact; for MBC (minimum biocidal concentration): single component, against S. Aureus, in water
Experimental: Selected materials were also tested against a representative Gram positive Staphylococcus aureus.
This suspension was separated into equal volumes and centrifuged at 4000 rpm for 15 minutes. Following centrifugation the pellet was re-suspended in saline to give a final concentration of 0.35 OD620 equivalent to about 10^8 cells per millilitre for this particular organism. Here, OD620 indicates the absorbance of a sample in a cuvette of 1.0 cm path length at a wavelength of 620 nm. This bacterial stock was used for assaying against antimicrobial actives (in triplicate).
The following assay describes the testing of 8 materials using 6 dilutions across half of a 96-well micro litre plate (MTP). Using this approach it is possible to assay 16 actives (without replicates) with, one full dilution plate, replicating this set up in two halves of the plate columns, 1-6 and 7-12.
IM solutions of the test actives were prepared in dimethylsulphoxide (DMSO).
This MTP was labeled as the “Screening plate”.
In another MTP, labeled as the “Dilution plate”, 270 μl of D/E neutralising solution from DIFCO Composition was added to column 1. The composition of the neutralising solution was as follows: pancreatic digest of casein, 5.0 g/L; Yeast Extract, 2.5 g/L; Dextrose, 10 g/L, sodium thioglycollate, 1.0 g/L, sodium thiosulphate, 6.0 g/L; sodium bisulphite, 2.5 g/L; Polysorbate 80, 5.0 g/L; lecithin 7.0 g/L; bromocresol purple, 0.02 g/L with a pH is the range 7.6±0.2.
270 μl of tryptone diluent solution was added to all the remaining wells of the Dilution MTP (columns 2-6).
Bacterial stock (30 μl) was then added to the prepared 270 μl of the solution of actives in the Screening Plate and mixed, using a multichannel pipette with 8 tips to aspirate and dispense the same volume of bacterial stock in parallel to 8 wells in rows A-H. After a contact time of 15 seconds, the mixtures were quenched by transferring 30 μl volumes of the mixtures into the 270 μl D/E neutralising solution in the prepared dilution plate, using aspiration to mix. After exactly 5 minutes in the D/E neutralising solution, 30 μl volumes were transferred from column 1 to column 2 of the Dilution MTP and mixed, before transferring further 30 μl volumes from column 2 into column 3. This process was repeated serially diluting the bacteria across the plate to column 6.
30 μl volumes from each well in the Dilution MTP were transferred onto pre-labeled segment of Tryptone Soya Agar (TSA) plates starting from the lowest bacterial concentration (highest dilution, column 6) to the highest bacterial concentration (column 1). The TSA plates were allowed to stand for ca. 2 hours so that the 30 μl inocula spots could dry and the plates were then inverted and incubated overnight at 37° C. before enumerating the bacterial colonies at the labeled dilutions to determine the effects of the actives on bacterial growth.
Mean bacterial survival numbers NMBS (expressed in Log CFU/ml) are obtained by first determining the segment of the TSA plate where the number of bacterial colonies is countable. From the colony number in this segment, NMBS is calculated by the formula: […]
Here, Ncol is the colony count, and DF is the dilution factor taken from the MTP-well corresponding to the TSA plate segment (i.e. DF may range from 1 for the quench, to 6 for the highest dilution). The factor 100/3 is a conversion factor from the volume of the inocula spot to one millilitre.
Every assay test was performed in triplicate.
Thus, a value of NMBS of about 7 corresponds to a count of about 3 colonies from the fifth dilution well, i.e. with DF=5. Such a count of about 7 is generally observed when bacteria are exposed to non-biocidal materials. In case no surviving colonies are observed in any segment of the TSA plate, this is interpreted as complete kill and a value of NMBS=0 is reported.
S. aureus Bacterial stock was prepared as shown below and the antibacterial efficacy of the active was carried out as explained earlier for E. Coli.

SMILES	SI (Synergy Index = Qa/QA + Qb/QB) [1]	NMBS ([2]; 0.05% w/v)	NMBS ([2]; 0.125% w/v)	NMBS ([2]; 0.5% w/v)	NMBS ([2]; […] w/v)	MBC (minimum biocidal concentration) [2]	Qb: MBC of the second component (B) acting alone (QB) ([1]; component alone (Qa = 0), complete kill in 15 seconds)	NMBS ([2]; 1.0% w/v)
CCCc1ccccc1O [2-n-propylphenol]	1.00	7.40 log CFU/ml	7.06 log CFU/ml	0 log CFU/ml	4.12 log CFU/ml	0.5 % w/v		
CC(C)=CCC/C(C)=C/CO [(E)-3,7-dimethylocta-2,6-dien-1-ol]	1.00			7.43 log CFU/ml		>1.5 % w/v	0.3 weight % and 0.5 weight % and 0.6 weight %	7.18 log CFU/ml

— patent publication US20150087723A1, “MICROBIAL COMPOSITION” (Rohm and Haas Company, priority 2011, published 2015)
